# Experimental data taken from patent US12329158B2, “Large-scale methods of uniformly coating packaging surfaces with a volatile antimicrobial to preserve food freshness” (AGROFRESH INC., priority 2013, dated 2025).
# Key:
# [1] = system: Botrytis cinerea; test: Volatile release from materials treated by sublimation (Example 14); type: cell-based
# Experimental: An in vitro assay is used to evaluate the ability of compound A to volatilize from different materials and control fungal growth. Cardboard box (Category 1), PET plastic (Polyethylene terepthalate—PET) and Polyethylene are used. The materials are cut into equal dimensions (10×19 cm^2) and placed inside a 36-L acrylic desiccator cabinet (Fisher Scientific, cat no. 08-642-23C) in duplicate.
# The acetone is allowed to evaporate for 1 minute at 60° C. Compound A is then introduced as a gas into the cabinets by a sublimation device (copper tube heated to 180° C. with fan flow at 0.5 L/min) to achieve a final headspace concentration of 0.3, 0.06 and 0.012 mg/L). The chambers are then incubated at 23° C. for 24 hours, then treated materials are carefully removed and placed inside a clean 10.8 cup SnapWare airtight container (Model #109842) containing a 10-cm diameter Petri dish with PDA and inoculated with 1 μL of […] of B. cinerea. The containers are then tightly sealed for 3 days at 23° C. After 3 days of storage, cultures are evaluated for percent growth relative to control.
# [2] = system: Penicillium digitatum; test: Green mold on orange, volatile assay (Example 25); type: in vivo; conditions: 50 mg/L, day 3 at 21 C after 5 days at 1 C
# [3] = system: Botrytis cinerea; test: Gray mold on strawberry, contact assay (Example 23); type: in vivo
# Experimental: Eight strawberries (per repetition, in triplicate) are placed in an industry standard 1-lb PET clamshell with the stem-end facing down.
# Contact Assay: Compound A is dissolved in 85% methanol to achieve a final concentration of 250, 50, 10, or 2 mg/L. A 250 mL solution of each concentration is used to dip eight inoculated strawberry fruit for one-minute, performed in triplicate per rate. The dipped fruits are then placed back into the clamshells, which are then placed in a secondary container and incubated at 1° C. for 5 days. After incubation, fruits are evaluated for disease severity (scale 0 to 4, with ≤1 indicating marketable fruit and 4 indicating ≥50% of fruit surface covered by pathogen) up to 4 days at 21° C.
# [4] = system: Diplodia gossypina; test: Volatile MIC assay (Example 11); type: cell-based; conditions: Lasiodiplodia theobromae, D. gossypina
# Experimental: (§1) A 3-mL volume of full-strength Potato Dextrose Agar (PDA) is added to each well. After cooling, 1 μL of 1×10^5 spores per mL of Botrytis cinerea, Penicillium expansum, Alternaria alternata, Glomerella cingulata, Penicillium digitatum, Monilinia fruticola, Aspergillus brasiliensis, Colletotrichum acutatum, Fusarium sambucinum, Phytophthora capsici, Geotrichum candidum, Aspergillus niger, Diplodia gossypina or Diaporthe citrii suspension is spotted onto the center of the agar. A Whatman #1 filter disk (Cat. No. 1001-0155) is placed, in duplicate, on the underside of a polyethylene PCR plate sealing film. […] The headspace around the inoculum is then sealed inside the well by the film with the adhering disk containing the fungicide by inverting the plates over the treated disks and sealing to prevent any of the chemical from flaking from the disk and falling onto the inoculated agar. After 3 days of storage at 23° C., cultures are evaluated for percent growth relative to control.
# [5] = system: Alternaria alternata; test: Volatile MIC assay (Example 11); type: cell-based; conditions: A. alternata
# Experimental: as §1
# [6] = system: Aspergillus niger; test: Volatile MIC assay (Example 11); type: cell-based; conditions: A. niger
# Experimental: as §1
# [7] = system: Diaporthe citrii; test: Volatile MIC assay (Example 11); type: cell-based; conditions: D. citrii
# Experimental: as §1
# [8] = system: Penicillium expansum; test: Volatile MIC assay (Example 11); type: cell-based; conditions: P. expansum
# Experimental: as §1
# [9] = system: Monilinia fruticola; test: Volatile MIC assay (Example 11); type: cell-based; conditions: M. fruticola
# Experimental: as §1
# [10] = system: Fusarium sambucinum; test: Volatile MIC assay (Example 11); type: cell-based; conditions: F. sambucinum
# Experimental: as §1
# [11] = system: Colletotrichum acutatum; test: Volatile MIC assay (Example 11); type: cell-based; conditions: C. acutatum
# Experimental: as §1
# [12] = system: Geotrichum candidum; test: Volatile MIC assay (Example 11); type: cell-based; conditions: G. candidum
# Experimental: as §1
# [13] = system: Penicillium digitatum; test: Volatile MIC assay (Example 11); type: cell-based; conditions: P. digitatum
# Experimental: as §1
# [14] = system: Botrytis cinerea; test: Volatile MIC assay (Example 11); type: cell-based; conditions: B. cinerea
# Experimental: as §1
# [15] = system: Aspergillus brasiliensis; test: Volatile MIC assay (Example 11); type: cell-based; conditions: A. brasiliensis
# Experimental: as §1
# [16] = system: Phytophthora capsici; test: Volatile MIC assay (Example 11); type: cell-based; conditions: P. capsici
# Experimental: as §1
# [17] = system: Epidermophyton floccus; test: In vitro contact assay (Example 26); type: cell-based; conditions: Epidermophyton, 120 h, 5 days at 28 C, 100% control, read-out: MIC (mg/L) Epidermophyton floccus
# Experimental: (§2) Half-strength Potato Dextrose Agar (PDA) is amended with a mixture of one of the test compounds in acetone or methanol to a final concentration of 50, 10, 2, 0.4 or 0.08 mg/L. A 3-mL volume of the amended media is added to each well of the microtiter plate. […] The plates are sealed with a clear film and incubated inverted for 5 days at 28° C.
# [18] = system: Trichophyton mentagrophytes; test: In vitro contact assay (Example 26); type: cell-based; conditions: Trichophyton mentagrophytes, 120 h, 5 days at 28 C, 100% control, read-out: MIC (mg/L) Trichophyton mentagrophytes
# Experimental: as §2
# [19] = system: Trichophyton rubrum; test: In vitro contact assay (Example 26); type: cell-based; conditions: Trichophyton rubrum, 120 h, 5 days at 28 C, 100% control, read-out: MIC (mg/L) Trichophyton rubrum
# Experimental: as §2
structure (smiles),measurement,setting,value
"OB1OCc2cc(F)ccc21 [Compound A, 5-fluoro-1,3-dihydro-1-hydroxy-2,1-benzoxaborole]",Incidence (%),"[1]; Rate 0.012 mg/L, Cardboard",100.0%
same,Incidence (%),"[1]; Rate 0.012 mg/L, Clamshell",100.0%
same,Incidence (%),"[1]; Rate 0.012 mg/L, Polyethylene",99.0%
same,Incidence (%),"[1]; Rate 0.06 mg/L, Cardboard",91.7%
same,Incidence (%),"[1]; Rate 0.06 mg/L, Clamshell",100.0%
same,Incidence (%),"[1]; Rate 0.06 mg/L, Polyethylene",86.7%
same,Incidence (%),"[1]; Rate 0.3 mg/L, Cardboard",9.3%
same,Incidence (%),"[1]; Rate 0.3 mg/L, Clamshell",4.1%
same,Incidence (%),"[1]; Rate 0.3 mg/L, Polyethylene",4.9%
same,Orange Sporulation (mm),[2],0.0 mm
same,Disease Severity (0 to 4),"[3]; 2 mg/L, Day 0",0.0
same,Disease Severity (0 to 4),"[3]; 2 mg/L, Day 1",0.0
same,Disease Severity (0 to 4),"[3]; 2 mg/L, Day 2",0.6
same,Disease Severity (0 to 4),"[3]; 2 mg/L, Day 3",1.1
same,Disease Severity (0 to 4),"[3]; 2 mg/L, Day 4",1.9
same,Disease Severity (0 to 4),"[3]; 10 mg/L, Day 0",0.0
same,Disease Severity (0 to 4),"[3]; 10 mg/L, Day 1",0.0
same,Disease Severity (0 to 4),"[3]; 10 mg/L, Day 2",0.0
same,Disease Severity (0 to 4),"[3]; 10 mg/L, Day 3",0.3
same,Disease Severity (0 to 4),"[3]; 10 mg/L, Day 4",1.0
same,Disease Severity (0 to 4),"[3]; 50 mg/L, Day 0",0.0
same,Disease Severity (0 to 4),"[3]; 50 mg/L, Day 1",0.0
same,Disease Severity (0 to 4),"[3]; 50 mg/L, Day 2",0.0
same,Disease Severity (0 to 4),"[3]; 50 mg/L, Day 3",0.0
same,Disease Severity (0 to 4),"[3]; 50 mg/L, Day 4",0.0
same,Disease Severity (0 to 4),"[3]; 250 mg/L, Day 0",0.0
same,Disease Severity (0 to 4),"[3]; 250 mg/L, Day 1",0.0
same,Disease Severity (0 to 4),"[3]; 250 mg/L, Day 2",0.0
same,Disease Severity (0 to 4),"[3]; 250 mg/L, Day 3",0.0
same,Disease Severity (0 to 4),"[3]; 250 mg/L, Day 4",0.0
same,MIC,[4],1.1 mg/L
same,MIC,[5],2.2 mg/L
same,MIC,[6],2.2 mg/L
same,MIC,[7],2.2 mg/L
same,MIC,[8],1.1 mg/L
same,MIC,[9],2.2 mg/L
same,MIC,[10],1.1 mg/L
same,MIC,[11],4.4 mg/L
same,MIC,[12],8.9 mg/L
same,MIC,[13],2.2 mg/L
same,MIC,[14],2.2 mg/L
same,MIC,[15],2.2 mg/L
same,MIC,[16],1.1 mg/L
same,MIC,[17],2 mg/L
same,MIC,[18],2 mg/L
same,MIC,[19],2 mg/L
